# According to the METLIN SMRT retention time set (Domingo-Almenara et al. 2019):
# Experiment: gradient 5% acetonitrile 3 min, to 50% in 2 min, to 85% in 15 min, held 3 min, 100 µL/min
# Details: column: Zorbax Extend-C18 2.1 x 50 mm; eluents: water / acetonitrile, 0.1% formic acid
# In short: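 A Zorbax Extend-C18 column (2.1 × 50 mm, 1.8 μm) run at 100 μL/min with water and acetonitrile, both containing 0.1% formic acid, separated mixtures of ~100 pure standards. The HPLC was coupled to a quadrupole time-of-flight mass spectrometer operated in positive and negative ionization mode, with dead and dwell volumes of 40 μL and 900 μL. Each retention time was taken from a computationally picked adduct peak that was then manually inspected.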
row,Structure (SMILES),RP-LC retention time [s]
1,CCCCN(CCCC)c1nc(-c2ccncc2)nc2ccccc12,992
2,Cc1cc(Cl)ccc1NS(=O)(=O)c1cc2c(s1)CCN(C(=O)C1CC1)C2,923
3,CCc1nc(-c2csc(S(=O)(=O)N3CCCC(C(=O)Nc4ccc(Cl)cc4F)C3)c2)no1 (stereo unspecified),1150
4,COc1ccc(NC(=O)c2sc(N3CCCC3=O)nc2C)cc1Cl,809
5,Cc1ccc2[nH]cc(CCNC(=O)C3CCN(c4ccc(Cl)cc4)C3=O)c2c1 (stereo unspecified),987
6,Cc1nc(-c2ccc(S(=O)(=O)Nc3ccc(S(N)(=O)=O)cc3)cc2)co1,706
7,CCc1ccc(C2=NN(CCC(=O)NC(C)c3ccc4c(c3)OCCO4)C(=O)CC2)cc1 (stereo unspecified),832
8,COCc1nc(N(C)Cc2ccccc2)ncc1C(=O)O,804
9,O=C(CSc1nnc2c3sc(N4CCCC4)nc3ncn12)N1CCN(c2ccc(F)cc2)CC1,834
10,CCn1nc(CNC(=O)CSc2ccncc2)c2ccccc21,598
11,O=C(NC1CCCCC1)c1ccc(Nc2c(-c3ccccc3)nc3cnccn23)cc1,802
12,Cc1nn2c(CNS(=O)(=O)c3cccc(Cl)c3)c(-c3ccccc3)nc2s1,916
13,COc1ccc(-c2nnc(N3CCC(C(=O)NC4CCCCCC4)CC3)o2)cc1,881
14,COc1ccccc1NC(=O)N1C[C@@H]2CN(S(=O)(=O)c3ccc(C)cc3)C[C@H](C1)O2,836
15,CCc1cc(=O)n(CC(=O)NCc2ccccc2)c(N)n1,566
16,COc1cccc(CN2CCCn3nc(-c4cccc(OC)c4)cc3C2)c1,561
17,O=C(CSc1cc(-c2ccc(F)cc2)ncn1)NCc1ccc2c(c1)OCO2,825
18,Cc1ccc2c(NCc3ccc4c(c3)OCO4)c(-c3nc(C)no3)cnc2n1,1070
19,CCN1CCN(CCCNC(=O)CC2CCN(C(=O)c3[nH]c(C)c(C)c3C)CC2)CC1,578

row,Structure (SMILES),RP-LC retention time [s]
1,CC(C)(C)NC(=O)N1CCC(CNC(=O)C(=O)NCCC2=CCCCC2)CC1,818
2,O=C(Cn1ccn2nc(-c3ccc(F)cc3)c(CO)c2c1=O)N1CCCC1,683
3,CN(CCc1noc(-c2ccc(Cl)cc2)n1)C(=O)NCc1ccco1,868
4,O=C(Cn1c(N2CCCCC2)nc2ccccc2c1=O)N1CCN(c2ccccc2)CC1,976
5,CC(C)(C)c1csc(-c2csc(S(=O)(=O)NCc3ccccc3)c2)n1,1230
6,COc1ccc(-c2nc(-c3ccc4c(c3)oc(=O)n4C(C)C)no2)cc1,1070
7,O=C(NCCCN1CCOCC1)C1CCc2sc(C(=O)N3CCCC3)cc2C1 (stereo unspecified),576
8,COc1ccc(-c2nc(-c3cn(-c4cccc(Cl)c4)nn3)no2)c(OC)c1,1070
9,Cc1ccc2c(c1)cc(S(=O)(=O)c1ccccc1)c(=O)n2CC(=O)NC(C)C,808
10,COc1ccc(Nc2nc(-c3nnn(-c4ccc(Br)cc4F)c3C)ns2)cc1,1080
11,CCn1nccc1C(=O)N1C[C@@H]2C[C@H](NC(=O)c3ccccc3)[C@H]1C2,673
12,O=C(NCCC1CCN(S(=O)(=O)c2ccccc2)CC1)Nc1cc(F)ccc1F,960
13,CC1Oc2ccc(S(=O)(=O)N3CCC(C(=O)N4CCCc5ccccc54)CC3)cc2NC1=O (stereo unspecified),891
14,CC(C)C(=O)Nc1ccc(CCc2nc3ccc(C(=O)NC4CC4)cc3[nH]2)cc1,594
15,COc1ccc(-c2csc(C)n2)cc1S(=O)(=O)N1CC=C(c2ccccc2)CC1,1130
16,CN1C(=O)c2cc(S(=O)(=O)Nc3ccc(Cl)cc3F)ccc2Oc2cccnc21,962
17,O=C(NCc1csc(-c2ccccc2)n1)C1CCN(S(=O)(=O)c2ccccc2)CC1,903
18,CCCC(NC(=O)c1cccc(F)c1)C(=O)Nc1nc2ccccc2[nH]1 (stereo unspecified),693
19,O=C(OCc1ccncc1)c1cn(-c2cccc(F)c2)c(=O)c2ccccc12,713

row,Structure (SMILES),RP-LC retention time [s]
1,O=C(Nc1ccc2c(c1)OCCO2)c1nn(CC2CC2)c2c1CNCC2,568
2,O=S(=O)(c1ccc2nncn2c1)N(Cc1cccc(F)c1)c1cccc(F)c1,851
3,CCCN(C(=O)Nc1ccc(CC)cc1)c1nc(-c2ccc(C3CCCCC3)cc2)cs1,619
4,COc1cccc(-c2nc(-c3ccc4c(c3)nc(C)c(=O)n4C)no2)c1,843
5,O=S(=O)(c1ccccc1F)N1CCC(c2noc(-c3ccc(F)cc3)n2)CC1,1110
6,COc1ccc(CC(=O)N2C[C@@H]3C[C@H](NC(=O)c4ccccc4)[C@H]2C3)cc1Cl,794
7,O=c1ccn(-c2ccc(Cl)cc2)nc1-c1nc(-c2ccc(F)c(Br)c2)no1,1080
8,COc1ccc(NC(=O)CSc2nccc(N3CCN(c4cc(C)ccc4C)CC3)n2)cc1OC,774
9,Cc1c(-c2cccc(NS(=O)(=O)c3ccc(Cl)cc3)c2)nc2ncccn12,627
10,Cc1ccc(-c2ccc(N3CCN(c4ccccn4)CC3)nn2)cc1S(=O)(=O)N1CCOCC1,623
11,Cc1nn(CC(=O)NCCN(C)Cc2ccccc2)c(=O)c2noc(C)c12,595
12,CCC(C)n1[nH]c(=O)c2c1NC(=O)CSC2c1ccc(OC)c(OC)c1 (stereo unspecified),654
13,CCOC(=O)C1=C(C)NC(=O)NC1c1nc2ccccc2n1CC (stereo unspecified),597
14,CC1CCN(S(=O)(=O)c2ccc(-c3nnc(C(=O)NCc4ccccc4)o3)cc2)CC1,1040
15,O=C(Nc1ccc(F)cc1)N1CCC(n2cnc3ccc(Cl)cc3c2=O)CC1,828
16,O=C(Cn1cccc1-c1nc(-c2ccccc2)no1)Nc1ccc2c(c1)CCC2,1100
17,Cc1ccc(C)c(-c2cc3c(=O)n(Cc4nc(-c5ccccc5Br)no4)ncn3n2)c1,1220
18,COc1ccc2[nH]c(=O)c(CCC(=O)NCc3ccncc3)cc2c1,574
19,CCCn1cc(CCNS(=O)(=O)c2cccc(Cl)c2C)c2cccnc21,914

# Continued, values first:
row,RP-LC retention time [s],Structure (SMILES)
1,692,Cc1nnc(-c2ccc3ccn(CC(=O)N4CCN(c5ncccn5)CC4)c3c2)o1
2,865,CCCc1noc(-c2ccc(-n3ncc(C(=O)NC4CC4)c3C)nc2)n1
3,700,CC(C)Cn1c(CCNC(=O)c2ccc(F)cc2)nc2cccnc21
4,910,CC(C)n1c(=O)sc2cc(S(=O)(=O)N3CCC(C(=O)NCCc4cccs4)CC3)ccc21
5,1180,Cc1nn(C(=O)CCc2ccccc2)c(C)c1S(=O)(=O)N1CCCC1
6,860,Cc1ccc(C)c(N2CCN(C(=O)c3ccc(Cn4cncn4)cc3)CC2)c1
7,770,O=C(NCC1CCCO1)C1CCCN(c2ncccc2-c2noc(C3CCC3)n2)C1 (stereo unspecified)
8,871,Cc1ccc(NC(=O)Cn2nc(N3CCOCC3)c3ccccc3c2=O)c(Cl)c1
9,877,O=C(NCc1nc(-c2ccc(N3CCCCC3)cc2)no1)c1cccs1
10,621,Cn1cc(-c2cc3n(n2)CCC(=O)N3CC(=O)NCCCN2CCCCCC2)c2ccccc21
11,800,Cc1ccc(Nc2cc(C)nc(N3CCN(C(=O)Nc4cccc(Cl)c4)CC3)n2)cc1
12,683,COc1ccc(NC(=O)C2CCN(c3cnc4nc(C)c(C)nc4c3)CC2)c(C)c1
13,742,CCN1CCN(c2ccc(NC(=O)c3ccc(Cl)s3)cn2)C1=O
14,680,O=C(NCc1cccc(F)c1)C1CCN(c2cnc3nccnc3c2)CC1
15,661,CCN1CCN(c2nc3cc(C(=O)OC)ccc3c(=O)n2-c2cc(OC)cc(OC)c2)CC1
16,618,O=C(NCc1ccc(N2CCOCC2)nc1)c1ccc(Cl)s1
17,761,COC(=O)Cn1c(=O)c2c(nc3n2CCCN3c2ccccc2)n(C)c1=O
18,630,COc1ccc(NC(=O)N2CCC(CCOc3cccnc3)CC2)cc1
19,928,O=C(NCCc1csc(-c2ccccc2)n1)C1CCN(S(=O)(=O)c2ccc(F)cc2)CC1
20,810,O=C(Nc1nc(-c2nc3ccccc3s2)cs1)c1ccno1
21,787,Cn1ncc2c3ccccc3n(CCCC(=O)NCc3ccco3)c2c1=O
22,737,COc1ccc(NC(=O)c2cnc(N3CCN(c4ccccc4OC)CC3)nc2N)cc1
23,833,Cn1ncc2c(N3CCSCC3)nc(C(=O)NCCc3cccs3)nc21
24,803,COc1ccccc1-c1cc(C(=O)N2CCN(c3ncccn3)CC2)c2ccccc2n1
25,654,CC1CCN(c2ncc3c(n2)CCC(C(=O)NCCN2CCc4ccccc4C2)C3)CC1 (stereo unspecified)
26,687,c1ccc(CCc2nc(-c3ccc4c(c3)nnn4CCN3CCOCC3)no2)cc1
27,1220,Cc1ccc(C)c(NC(=O)C2CCCN(c3nc4c(s3)c(C)nn4-c3ccccc3)C2)c1 (stereo unspecified)
28,664,CCc1nn2c(CNC(=O)C3CCN(C(C)=O)CC3)c(-c3ccccc3)nc2s1
29,619,Cc1nc(N2CCOCC2)cc(N2CCN(C(=O)c3ccc(Br)o3)CC2)n1
